Test results: US20220267260A1, “COMPOUNDS CONTAINING A SULFONIC GROUP AS KAT INHIBITORS” (Epizyme, Inc., priority 2016, published 2022)

Legend:
KAT6A = target: T1, KAT6A (Homo sapiens, UniProt Q92794); experiment: KAT6A enzyme inhibition assay (SAMDI mass spectrometry); assay type: biochemical; conditions: His-TEV-KAT6A 501-784 enzyme construct
T1 construct: His-TEV tag (N, cleaved yes); made in house

KAT5 = target: T2, KAT5 (Homo sapiens, UniProt Q92993); experiment: KAT5 enzyme inhibition assay (SAMDI mass spectrometry); assay type: biochemical; conditions: His-TEV-FL KAT5-Flag enzyme construct
T2 construct: His-TEV tag (N, cleaved yes); made in house
T2 sequence (Q92993 with tags, fused parts or gaps): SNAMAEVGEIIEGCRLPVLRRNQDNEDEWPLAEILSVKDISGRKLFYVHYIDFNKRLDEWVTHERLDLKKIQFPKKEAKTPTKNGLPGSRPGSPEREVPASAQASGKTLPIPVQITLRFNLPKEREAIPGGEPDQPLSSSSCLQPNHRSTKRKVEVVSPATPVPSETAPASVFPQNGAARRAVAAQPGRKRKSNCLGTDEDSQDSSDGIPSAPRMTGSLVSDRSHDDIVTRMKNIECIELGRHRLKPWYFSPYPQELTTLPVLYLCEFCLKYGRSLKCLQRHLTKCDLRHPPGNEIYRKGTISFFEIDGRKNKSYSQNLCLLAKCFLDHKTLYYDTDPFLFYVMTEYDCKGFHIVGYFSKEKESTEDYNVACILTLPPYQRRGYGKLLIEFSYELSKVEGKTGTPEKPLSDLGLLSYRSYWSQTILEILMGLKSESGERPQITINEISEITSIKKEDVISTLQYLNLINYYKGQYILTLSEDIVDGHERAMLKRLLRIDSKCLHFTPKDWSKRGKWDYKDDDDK

T1 sequence (Q92794 with tags, fused parts or gaps): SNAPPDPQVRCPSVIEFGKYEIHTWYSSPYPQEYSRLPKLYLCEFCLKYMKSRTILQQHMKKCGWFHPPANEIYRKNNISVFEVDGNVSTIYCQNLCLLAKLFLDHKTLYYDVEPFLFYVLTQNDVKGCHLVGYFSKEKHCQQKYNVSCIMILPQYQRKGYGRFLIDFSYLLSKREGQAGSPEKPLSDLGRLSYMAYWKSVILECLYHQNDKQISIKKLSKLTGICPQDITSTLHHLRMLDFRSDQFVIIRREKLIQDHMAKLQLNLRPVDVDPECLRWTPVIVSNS

SMILES | IC50 (KAT6A) | IC50 (KAT5)
CN1CCN(Cc2cc(Cl)c(F)c(C(=O)NNS(=O)(=O)C3CCOCC3)c2)CC1 [Compound I-442] | > 100 µM | > 100 µM
Cc1cc(-c2cccc(C(=O)OCc3ccccc3)c2)cc(C(=O)NNS(=O)(=O)C2CCOCC2)c1F [Compound I-443] | ≤ 10 µM | ≤ 10 µM
Cc1cc(-c2cccc(C(=O)O)c2)cc(C(=O)NNS(=O)(=O)C2CCCCC2)c1F [Compound I-444] | ≤ 10 µM | ≤ 10 µM
COCCNC(=O)c1cccc(-c2cc(C)c(F)c(C(=O)NNS(=O)(=O)C3CCCCC3)c2)c1 [Compound I-445] | > 100 µM | 10 to 50 µM
Cc1cc(-c2cccc(C(=O)OCc3ccccc3)c2)cc(C(=O)NNS(=O)(=O)CC2CCCCC2)c1F [Compound I-446] | 50 to 100 µM | 10 to 50 µM
COCCNC(=O)c1cccc(-c2cc(C)c(F)c(C(=O)NNS(=O)(=O)CC3CCCCC3)c2)c1 [Compound I-447] | 10 to 50 µM | ≤ 10 µM
O=C(NNS(=O)(=O)C1CCOCC1)c1cc(CN2CCOCC2)cc(Cl)c1F [Compound I-448] | > 100 µM | > 100 µM
Cc1cc(-c2cccc(C(=O)OCc3ccccc3)c2)cc(C(=O)NNS(=O)(=O)c2ccccc2)c1F [Compound I-449] | 50 to 100 µM | 50 to 100 µM
Cc1cccc(-c2ncc(C(=O)Nc3ccccc3)[nH]2)c1F [Compound I-450] | ≤ 10 µM | ≤ 10 µM
COCc1cc(Cl)c(F)c(C(=O)NNS(=O)(=O)C2CCCCC2)c1 [Compound I-451] | 10 to 50 µM | ≤ 10 µM
COCc1cc(Cl)c(F)c(C(=O)NNS(=O)(=O)CC2CCOCC2)c1 [Compound I-452] | ≤ 10 µM | ≤ 10 µM
COCc1cc(Cl)c(F)c(C(=O)NNS(=O)(=O)C2CCOCC2)c1 [Compound I-453] | > 100 µM | > 100 µM
O=C(NNS(=O)(=O)C1CCOCC1)c1cc(CN2CCCCC2)cc(Cl)c1F [Compound I-454] | 10 to 50 µM | 50 to 100 µM
Nc1ccc(-c2cc(Cl)c(F)c(C(=O)NNS(=O)(=O)C3CCOCC3)c2)cc1 [Compound I-455] | > 100 µM | 10 to 50 µM
O=C(NNS(=O)(=O)C1CCCCC1)c1cc(CO)cc(Cl)c1F [Compound I-456] | > 100 µM | > 100 µM
O=C(NNS(=O)(=O)CC1CCCCC1)c1cc(CO)cc(Cl)c1F [Compound I-457] | ≤ 10 µM | ≤ 10 µM
CNC(=O)c1cccc(-c2cc(C)c(F)c(C(=O)NNS(=O)(=O)C3CCCCC3)c2)c1 [Compound I-458] | > 100 µM | > 100 µM
O=C(NNS(=O)(=O)C1CCOCC1)c1cc(-c2ccc(O)cc2)cc(Cl)c1F [Compound I-459] | ≤ 10 µM | > 100 µM
O=C(NNS(=O)(=O)C1CCCCC1)c1cc(-c2ccc(O)cc2)cc(Cl)c1F [Compound I-460] | 10 to 50 µM | ≤ 10 µM
O=C(NNS(=O)(=O)C1CCCCC1)c1c(Cl)ccc(Cl)c1F [Compound I-461] | > 100 µM | > 100 µM
Cc1cc(C(C)(C)C)cc(C(=O)NNS(=O)(=O)c2ccccc2)c1O [Compound I-462] | > 100 µM | > 100 µM
Nc1ccc(-c2cc(Cl)c(F)c(C(=O)NNS(=O)(=O)C3CCCCC3)c2)cc1 [Compound I-463] | > 100 µM | ≤ 10 µM

SMILES | IC50 (KAT6A) | IC50 (KAT5)
O=C(NNS(=O)(=O)C1CCOCC1)c1cc(Cn2cccn2)cc(Cl)c1F [Compound I-464] | > 100 µM | > 100 µM
O=C(NNS(=O)(=O)C1CCOCC1)c1cc(CO)cc(Cl)c1F [Compound I-465] | 50 to 100 µM | > 100 µM
O=C(NNS(=O)(=O)CC1CCOCC1)c1cc(CO)cc(Cl)c1F [Compound I-466] | 10 to 50 µM | 10 to 50 µM
O=C(NNS(=O)(=O)C1CCCCC1)c1c(F)c(-c2ccccc2)cc2nc[nH]c12 [Compound I-467] | > 100 µM | > 100 µM
Cn1cnc2c(C(=O)NNS(=O)(=O)C3CCCCC3)c(F)c(-c3ccccc3)cc21 [Compound I-468] | > 100 µM | > 100 µM
Cc1nn(C)c(C(=O)NNS(=O)(=O)C2CCCCC2)c1F [Compound I-469] | > 100 µM | > 100 µM
O=C(NCCO)c1cc(Cl)c(F)c(C(=O)NNS(=O)(=O)C2CCCCC2)c1 [Compound I-470] | > 100 µM | 50 to 100 µM
COCCN(C)C(=O)c1cc(Cl)c(F)c(C(=O)NNS(=O)(=O)C2CCOCC2)c1 [Compound I-471] | > 100 µM | > 100 µM
CCNC(=O)c1cc(Cl)c(F)c(C(=O)NNS(=O)(=O)C2CCCCC2)c1 [Compound I-472] | > 100 µM | > 100 µM
O=C(NC1CCC1)c1cc(Cl)c(F)c(C(=O)NNS(=O)(=O)C2CCCCC2)c1 [Compound I-473] | > 100 µM | > 100 µM
CNC(=O)CCNC(=O)c1cc(Cl)c(F)c(C(=O)NNS(=O)(=O)C2CCCCC2)c1 [Compound I-474] | > 100 µM | > 100 µM
Cc1c(F)c(C(=O)NNS(=O)(=O)C2CCCCC2)nn1C [Compound I-475] | > 100 µM | > 100 µM
Cc1cc(-c2ccccc2)cc(C(=O)NNCC(F)(F)F)c1F [Compound I-476] | > 100 µM | > 100 µM
COCCNC(=O)c1cccc(-c2cc(C)c(F)c(C(=O)N(N)S(=O)(=O)c3ccccc3)c2)c1 [Compound I-477] | > 100 µM | > 100 µM
Cn1cc(-c2ccc(F)c(Cl)c2)nc1C(=O)NNS(=O)(=O)CC1CCOCC1 [Compound I-478] | > 100 µM | > 100 µM
O=C(NNS(=O)(=O)C1CCCCC1)c1nc(-c2ccccc2)cc(Cl)c1F [Compound I-479] | 50 to 100 µM | > 100 µM
O=C(NCCO)c1cc(Cl)c(F)c(C(=O)NNS(=O)(=O)C2CCOCC2)c1 [Compound I-480] | > 100 µM | > 100 µM
CNC(=O)Cn1nc(C(=O)NNS(=O)(=O)C2CCCCC2)cc1C [Compound I-481] | > 100 µM | > 100 µM
O=C(NNS(=O)(=O)C1CCOCC1)c1cc(-c2cccc(CO)c2)cc(Cl)c1F [Compound I-482] | 10 to 50 µM | 10 to 50 µM
Cc1cc(-c2ccccc2)nc(C(=O)NNS(=O)(=O)C2CCCCC2)c1F [Compound I-483] | > 100 µM | 50 to 100 µM
Cc1cc(F)cc(-c2cc(Cl)c(F)c(C(=O)NNS(=O)(=O)C3CCCCC3)c2)c1 [Compound I-484] | 10 to 50 µM | 10 to 50 µM
O=C(NNS(=O)(=O)C1CCCCC1)c1cc(-c2cccc(CO)c2)cc(Cl)c1F [Compound I-485] | 10 to 50 µM | ≤ 10 µM

SMILES | IC50 (KAT6A) | IC50 (KAT5)
COc1cc(F)cc(-c2cc(Cl)c(F)c(C(=O)NNS(=O)(=O)C3CCCCC3)c2)c1 [Compound I-486] | 10 to 50 µM | 10 to 50 µM
O=C(NNS(=O)(=O)C1CCCCC1)c1cc(-c2cc(Cl)cc(Cl)c2)cc(Cl)c1F [Compound I-487] | 10 to 50 µM | 10 to 50 µM
O=C(NC1CCC1)c1cc(Cl)c(F)c(C(=O)NNS(=O)(=O)C2CCOCC2)c1 [Compound I-488] | > 100 µM | > 100 µM
CNC(=O)Cn1nc(C(=O)NNS(=O)(=O)C2CCCCC2)c(F)c1C [Compound I-489] | > 100 µM | > 100 µM
O=C(NNS(=O)(=O)C1CCCCC1)c1cc(-c2cc(F)cc(Cl)c2)cc(Cl)c1F [Compound I-490] | 10 to 50 µM | 50 to 100 µM
CNC(=O)c1cc(Cl)c(F)c(C(=O)NNS(=O)(=O)C2CCOCC2)c1 [Compound I-491] | > 100 µM | > 100 µM
CCNC(=O)c1cc(Cl)c(F)c(C(=O)NNS(=O)(=O)C2CCOCC2)c1 [Compound I-492] | > 100 µM | > 100 µM
CNC(=O)CCNC(=O)c1cc(Cl)c(F)c(C(=O)NNS(=O)(=O)C2CCOCC2)c1 [Compound I-493] | > 100 µM | > 100 µM
COCCNC(=O)c1cccc(-c2cc(C)c(F)c(C(=O)NNS(=O)(=O)c3ccccc3)c2)c1 [Compound I-494] | ≤ 10 µM | 10 to 50 µM
O=C(NNS(=O)(=O)CC1CCCCC1)c1cc(-c2c[nH]cn2)ccc1F [Compound I-495] | 10 to 50 µM | 10 to 50 µM
CNC(=O)Cn1cc(F)c(C(=O)NNS(=O)(=O)C2CCCCC2)n1 [Compound I-496] | > 100 µM | > 100 µM
O=C(NNS(=O)(=O)c1ccccc1)c1c(F)ccc(-c2cnc[nH]2)c1F [Compound I-497] | 10 to 50 µM | 50 to 100 µM
CCc1cc(F)cc(-c2cc(Cl)c(F)c(C(=O)NNS(=O)(=O)C3CCCCC3)c2)c1 [Compound I-498] | 10 to 50 µM | 10 to 50 µM
O=C(NNS(=O)(=O)c1cccc(Cl)c1)c1c(F)ccc(-c2cnc[nH]2)c1F [Compound I-499] | > 100 µM | > 100 µM
CNC(=O)Cn1nc(C)cc1C(=O)NNS(=O)(=O)C1CCCCC1 [Compound I-500] | > 100 µM | > 100 µM
Cc1nn(CC(=O)NC2CCC2)c(C(=O)NNS(=O)(=O)C2CCCCC2)c1F [Compound I-501] | > 100 µM | > 100 µM
Cc1nn(CC(=O)NCCN(C)C)c(C(=O)NNS(=O)(=O)C2CCCCC2)c1F [Compound I-502] | > 100 µM | > 100 µM
CNC(=O)Cn1nc(C)c(F)c1C(=O)NNS(=O)(=O)C1CCCCC1 [Compound I-503] | > 100 µM | > 100 µM
Cc1nn(CC(=O)NCCO)c(C(=O)NNS(=O)(=O)C2CCCCC2)c1F [Compound I-504] | > 100 µM | > 100 µM
CNC(=O)CCNC(=O)Cn1nc(C)c(F)c1C(=O)NNS(=O)(=O)C1CCCCC1 [Compound I-505] | > 100 µM | > 100 µM
COCCN1CCC(CS(=O)(=O)NNC(=O)c2cc(-c3ccccc3)cc(C)c2F)CC1 [Compound I-507] | ≤ 10 µM | ≤ 10 µM
O=C(NNS(=O)(=O)CC1CCCCC1)c1cc(-c2cn3ccccc3n2)cc(Cl)c1F [Compound I-510] | > 100 µM | ≤ 10 µM
